Data on three compounds can be found in US4376785A, “Cyclopropanecarboxylates and a low fish toxic insecticide and/or acaricide containing them” (priority 1980, dated 1983).

Molecules are shown by their SMILES. Like-named read-outs stand apart in the source and are kept apart here.

Data set [1] concerns green rice leafhopper (Nephotettix cincticeps), R-strain. The experiment in a line: Insecticidal activity against green rice leafhopper, sprayed rice plants, Test example 1. Type of data set: in vivo. The following applies: green rice leafhopper female adults, spray on rice plant, 26° C., 24 hours. As to the method: The emulsifiable concentrates of the present compounds and reference compounds prepared in Preparation example 1 were each formulated into test solutions having four different concentrations of active ingredient between 500 ppm and 0.5 ppm. Each test solution was sprayed on a rice plant in a 180-ml plastic cup which had elapsed one month after sowing, at a rate of 15 ml/2 cups by means of a turn table. After air-drying, the rice plate was covered with a wire-screen cage, and 15 female adults of green rice leafhopper (Nephotettix cincticeps) (a strain resistant to carbamates and organo-phosphates, hereinafter referred to as R-strain) were liberated therein. The plant was placed in an artificial climate chamber kept at 26° C. After 24 hours, the dead and alive were examined. The median lethal concentratin [LC50 (ppm)] was calculated from the mortality determined by 3 replications. […]

Data set [2] in a line: Toxicity to killifish (TLm48), Test example 1. In kind it is in vivo, Oryzias latipes. The settings on record: for selectivity ratio: in vivo, TLm48 divided by concentration in water at green rice leafhopper LC50, read-out: Safety coefficient to fishes (a)/(b); for LC50 at 48 h: water, killifish, medium tolerance limit, read-out: Toxicity to fishes TLm48 (a). As for the experimental part:
(§1) Toxicity to killifish (Oryzias latipes) was tested accordig to the test method for toxicity to fishes described in Notification B No. 2735 of the Ministry of Agriculture and Forestry (Nov. 25, 1965). Namely, each of the present compounds (1), (2), (4), (5), (6), (8), (9), (11) and reference compounds was dissolved or suspended in "Tween 80" and diluted successively with dechlorinated tap water. Ten killifish (0.2-0.3 g per fish) were released in a 10-liter glass vessel containing 5 liters of each preparation.
(§2) In order to make it clearer that the present compounds have a low toxicity to fishes as well as a high insecticidal activity, a safety coefficient to fishes was calculated from the test results of toxicity to fishes and insecticidal activity. [formula]
(§3) A detailed explanation will be given to a method of how to calculate the safety coefficient. In the case of green rice leafhoppers, calculation was based on the concentration of active ingredient in water obtained by applying a test solution containing the active ingredient in an amount corresponding to LC50 (ppm) to a flooded paddy field 5 cm deep at a rate of 100 liter/10 are, provided that all the active ingredient applied entered the water.
(§4) For example, the safety coefficient to fishes of the present compound (1) is calculated as follows: The quantity of water in a flooded paddy field 5 cm deep and 10 are in area is 50 tons; when a test solution containing the active ingredient in an amount corresponding to LC50 (ppm) is added to the paddy field at a rate of 100 liter/10 are the concentration of the active ingredient in water (hereinafter referred to as (b)) is 0.008 pp; as the toxicity to fishes [TLm48 (ppm)] (hereinafter referred to as (a)) is >2.0 ppm, said coefficient can be calculated by dividing (a) by (b). In this case, the coefficient is >250, which means that the present compound (1) has a safety higher than 250-fold.

Data set [3] relates to killifish (Oryzias latipes). The data set can be described thus: Toxicity to killifish (TLm48), Test example 1. Type of data set: in vivo. The following applies: killifish, medium tolerance limit, 48 hours. As for the experimental part: as §1, §2, §3, §4
The test system of data set [4] is killifishes (Oryzias latipes). The data set can be described thus: Simulated paddy field box test, killifish survival, Test example 6. Type of data set: in vivo. The following applies: wettable powder, 100 ppm, 100 liter/10 are, water depth 5 cm, after 48 hours. As to the method:
(§5) The wettable powder of each of the present compounds (1), (3), (5), (6) and (11) prepared in Preparation example 4 was diluted with water so that the concentration of active ingredient was 100 ppm. Soil was placed in a plastic box [5 m×5 m×2 m (deep)] to a level of 50 cm from the bottom, and rice plants about 50 cm high were transplanted at invervals of 50 cm. Water was then placed in the box so that water depth was 5 cm, and 20 killifishes (Oryzias latipes) were liberated therein. Thereafter, the above dilute solution was sprayed on the box at a rate of 100 liter/10 are. The solution fell on the rice plants as well as on the water surface.
(§6) One hour after treatment, 100 female adults of green rice leafhopper (Nephotettix cincticeps) were liberated in the box which was immediately covered with a net.

Data set [5] has as its system green rice leafhopper (Nephotettix cincticeps). The experiment in a line: Simulated paddy field box test, green rice leafhopper, Test example 6. Type of data set: in vivo. The following applies: wettable powder, 100 ppm, 100 liter/10 are, after 48 hours. As for the experimental part: as §5, §6
Data set [6] concerns yellow fever mosquito (Aedes aegypti). Type of data set: in vivo. The following applies: 50 mg of granules (Preparation example 6) in 100 ml water, full grown larvae, after 24 hours. As for the experimental part:
Fifty milligrams of each of the granules of the present compounds (5) and (11) obtained in Preparation example 6 was placed in a 100-ml beaker containing 100 ml of distilled water, and 30 full grown larvae of yellow fever mosquito (Aedes aegypti) were liberated therein. After 24 hours, 100% of the larvae could be killed.

Data set [7] has as its system green rice leafhopper (Nephotettix cincticeps). The data set can be described thus: Residual effect test, Text example 5. Type of data set: in vivo. The following applies: 20 cc per pot, 24 hours. As to the method: The emulsifiable concentrate of each of the present compounds (5) and (11) prepared in Preparation example 1 was diluted with water so that the conentration of active ingredient was 400 ppm. Thereafter, 20 cc of the dilute solution was sprayed on rice plants grown in a 1/10,000 are Wagner's pot. The rice plants were air-dried and covered with a wire-screen cage, and 15 female adults of green rice leafhopper (Nephotettix cincticeps) were liberated therein. After 24 hours, the dead and alive were examined to obtain mortality. In order to examine the residual effect, the pot was then left as it was for 7 days, and the test insects were liberated in the same manner as above. After 24 hours, the mortality was examined. The experiment was carried out in a greenhouse and the number of replications was three.

Data set [8] has as its system carmine mites (Tetranychus cinnabarinus). The data set can be described thus: Damage to rice plants by carmine mites, Test example 4. In kind it is in vivo. The following applies: 500 ppm spray, after 10 days. As to the method: The emulsifiable concentrate of each of the present compounds (3), (5), (9) and (11) prepared in Preparation example 1 was diluted with water so that the concentration of the active ingredient was 500 ppm. The dilute liquor was thoroughly sprayed on rice plants (grown in a 1/10,000 are Waner's pot) on which carmine mites (Tetranychus cinnabarinus) in all stages were made parasitic.

For data set [9], the system named is CSMA strain housefly (Musca domestica). The experiment in a line: Topical application to housefly adults, Test example 8. The settings on record: topical to ventral thorax, 0.5 μl/adult, female adults, 24 hours. In kind it is in vivo. As for the experimental part: The present compounds as below and reference compounds were each diluted with acetone into test solutions having four different concentrations of active ingredient. Each test solution was topically applied to the ventral throrax of CSMA strain housefly female adults (Musca domestica), at a rate of 0.5 μl/adult by means of a microapplicator.
The adults were then liberated in a polyethylene cup and fed with milk, sugar and water. After 24 hours, the dead and alive were observed. The median lethal dosage (LD50 μg/adult) was obtained from the morality (3 replications).

In data set [10] the test system is housefly (Musca domestica). The data set can be described thus: Housefly mortality, treated filter paper with bait, Test example 7. The following applies: 0.7 ml on filter paper, housefly female adults, 48 hours. In kind it is in vivo. As to the method: The emulsifiable concentrate obtained in preparation Example 1 was diluted 200 times with water (corresponding to 500 ppm of the active ingredient). On the bottom a polyethylene cup of 5.5 cm in diameter was placed a piece of filter paper of the same size, and 0.7 ml of the above dilute liquor was dropped on the filter paper. Sucrose (30 mg) was placed on the paper as bait. Thereafter, 10 housefly female adults (Musca domestica) were liberated in the cup which was then covered with a lid. After 48 hours, the dead and alive were counted to obtain mortality (4 replications).

The mark [11] stands for this setting: insects liberated 7 days after treatment, read-out: Mortality, effect 7 days after treatment.
The mark [12] stands for this setting: read-out: Mortality, effect immediately after treatment.

With `CC1(C)[C@H](C(=O)OC(C#N)c2ccc(F)c(Oc3ccc(Br)cc3)c2)[C@H]1C(Br)C(Cl)(Cl)Br` (relative stereo) [compound (1), 3-(4-Bromophenoxy)-4-fluoro-α-cyanobenzyl dl-trans-2,2-dimethyl-3-(1,2-dibromo-2,2-dichloroethyl)cyclopropanecarboxylate], the LC50 in data set [1] was found to be 3.8 ppm. In data set [2], the selectivity ratio is above 250 and the LC50 at 48 h was above 2 µg/mL. In [3], the “Toxicity to fishes TLm48 (a)” value is given as above 2.0 ppm. For the same compound, the killifishes alive result in data set [4] is listed as “all of the killifishes were alive”. Moreover, the “green rice leafhoppers alive” value in [5] was “no alive green rice leafhoppers were found”.

Usually mortality stands for the percentage killed. As for `CC1(C)C(C(=O)OC(C#N)c2ccc(F)c(Oc3ccc(Br)cc3)c2)C1C(Br)C(Cl)(Cl)Br` (stereo not drawn) [(11), 3-(4-bromphenoxy)-4-fluoro-α-cyanobenzyl 2,2-dimethyl-3-(1,2-dibromo-2,2-dichloroethyl)cyclopropanecarboxylate], the LC50 in [1] worked out at 4.7 ppm. In data set [2], the selectivity ratio was above 200 and the LC50 at 48 h is above 2 µg/mL. In data set [4], the killifishes alive entry is “all of the killifishes were alive”. In data set [6], the larvae killed is 100%. The “green rice leafhoppers alive” value in data set [5] is recorded as “no alive green rice leafhoppers were found”. The mortality at 400 ppm in [7] (setting [11]) is 100%. Also, in data set [7] (setting [12]), the mortality at 400 ppm stood at 100%. Besides, in data set [8], the “damage to rice plants by carmine mites” value is recorded as “the spreading of the damage could be prevented”.

Take `CC1(C)C(C(=O)OC(C#N)c2ccc(F)c(Oc3ccc(Cl)cc3)c2)C1C(Br)C(Cl)(Cl)Br` (stereo not drawn) [compound (5), 3-(4-Chlorophenoxy)-4-fluoro-α-cyanobenzyl 2,2-dimethyl-3-(1,2-dibromo-2,2-dichloroethyl)cyclopropanecarboxylate]: the LC50 in data set [1] is 4.8 ppm. Further, in data set [2], the selectivity ratio is above 100 and the LC50 at 48 h was above 1 µg/mL. Further, in [9], the LD50 worked out at 0.033 μg/adult. For the same compound, the killifishes alive result in data set [4] is reported as “all of the killifishes were alive”. Also, the larvae killed in data set [6] is 100%. Besides, in data set [5], the “green rice leafhoppers alive” value is “no alive green rice leafhoppers were found”. In data set [7] (setting [11]), the mortality at 400 ppm was found to be 100%. Moreover, the mortality at 400 ppm in data set [7] (setting [12]) came to 100%. Also, the “damage to rice plants by carmine mites” value in data set [8] is “the spreading of the damage could be prevented”. Also, in [10], the mortality at 500 ppm was 100%.
